The results in this text go back to patent publication US20250288599A1, “PHARMACEUTICAL COMPOSITIONS AND METHODS FOR TREATING OSTEOARTHRITIS” (INSIGNIA PHARMACEUTICALS, LLC, priority 2024, published 2025).

The test system of assay [1] is PGE2 release from passage 3 normal human chondrocytes. Put plainly: Rescue versus preincubation regimens, IL-1β-induced PGE2 release from passage 3 normal human chondrocytes. It is filed as cell-based. The following applies: Homo sapiens, Chondrocyte, 25 μM Dec, singlet. The text has this:
The mechanisms of action (MOA) of a drug often dictate the timing and delivery of treatment regimens. While the MOA of compounds disclosed herein continue to be elucidated, experiments were designed to help establish how the drugs should be administered. Furthermore, these experiments will also help with hypothesis generation for subsequent MOA investigations. A low-passage chondrocyte monolayer model was utilized to establish how changes in drug delivery impact the inhibition of IL-1β-induced PGE2 release seen following treatment with the compounds under investigation.
Passage 3 normal human chondrocytes were seeded into tissue culture plates and then tested for compound activity by pre-treating for 24 hours, administering at the same time as activation, or by adding to cells following an overnight activation with IL-1β. Treatment groups included medium control, 25 μM decanoate (Dec), 28 mM D/L sodium Lac, and 10 μM LA. PGE2 release was then evaluated 24- or 96-hours post-activation with percent inhibitions calculated versus plate- and block-matched controls. The experiments were performed in singlet and are intended to be repeated to establish variance.

Assay [2] relates to PGE2 release from normal human chondrocytes. As to the kind of experiment: IL-1β-induced PGE2 release from normal human chondrocytes, 24 h, DA vs decanoate working solutions. It is filed as cell-based. The following applies: for inhibition at 25 µM: Homo sapiens, Chondrocyte, 25 micromolar. The procedure: The activity of DA working solutions prepared in either saline or lactated ringer's (LR) isotonic solutions was assessed. […] In addition, concentrated decanoate working solutions in saline or LR were prepared and added to the cultures at a final concentration of 25 micromolar. PGE2 release was then compared to matching points on the DA or decanoate medium as well as saline and LR controls.

Assay [3] has as its system IL-1β release from human THP1 macrophages. As to the kind of experiment: Two-hit (LPS then ATP) inflammasome activation model, IL-1β release from THP1 macrophages. The assay is classed as cell-based. The following applies: for IC50: Homo sapiens. The text has this: The proinflammatory cytokine, IL-1β, is released from cells upon activation of the inflammasome, a multi-protein proinflammatory complex. A two-hit model of inflammasome activation in THP1 macrophages was developed that entails an overnight stimulation with LPS followed by a second proinflammatory stimulus, extracellular ATP, which drives inflammasome assembly and subsequent IL-1β release from the cells into the media.

For assay [4], the system named is MMP13 expression in primary human chondrocytes from an osteoarthritic patient. As to the kind of experiment: MMP13 relative expression in primary human osteoarthritic chondrocytes treated with HA and/or Dex. It is filed as cell-based. The following applies: 0.1% HA, 0.1 μM Dex. The method, then:
Without being bound by theory, it is hypothesized that HA treatment in combination with Dex could provide a therapeutic strategy that promotes HA's beneficial effects while maintaining Dex's anti-inflammatory response. To investigate this, primary human chondrocytes from an osteoarthritic patient were treated with 0.1% HA and/or 0.1 μM Dex in monolayer culture or micromass pellets for 14 to 28 days. Total mRNA was then extracted, and qRTPCR was performed with primer pairs specific for MMP13 and the housekeeping gene GAPDH. Relative expression was then calculated versus controls, with each sample normalized to GAPDH amplification.

In assay [5] the test system is PGE2 release from normal human chondrocytes. Put plainly: IL-1β-induced PGE2 release from normal human chondrocyte monolayers, 48 h, competitive EIA. The assay is classed as cell-based. The method, then: Mechanical stress and inflammation are thought to sustain catabolic cycles of extracellular matrix deterioration during osteoarthritis. In particular, PGE2 correlates with increased protease production and discomfort or pain in osteoarthritis.
After 48-hours, PGE2 release was evaluated by competitive EIA, and relative potency was calculated versus dose responses of Dex alone.
After 48 hours, PGE2 release was evaluated by competitive enzyme immunoassay (EIA), and relative potency was calculated versus Dex alone.
Lac is commonly thought to be simply an end-product of anaerobic glycolysis; however, it may also have immunomodulatory effects and promote protein modifications that alter gene expression. The goal of this experiment was to determine how Lac supplementation affects early-phase, inflammatory, and late-stage redifferentiation in chondrocyte models. To establish how Lac may influence inflammation early in osteoarthritis, monolayers of normal human chondrocytes were exposed to Lac dose responses of up to 100 millimolar, concurrently with 0.5 nanograms per milliliter IL-1β for 48 hours. The release of PGE2 was then quantified using competitive EIA. To investigate how Lac affects transcriptional programs in dedifferentiated osteoarthritic chondrocytes, monolayer cultures and micromass pellets were treated for 14 days with 100 millimolar final concentrations of Lac, with and without 10 nanograms per milliliter transforming growth factor beta 3 (TGF-β3). Total RNA was then isolated, and relative expression of SOX9 or Col2a1 was calculated using qRT-PCR, normalized to GAPDH.

Assay [6] concerns MMP13 expression in human osteoarthritic chondrocytes. As to the kind of experiment: MMP13 relative expression in high and low passage osteoarthritic chondrocytes. It is filed as cell-based. The following applies: low passage osteoarthritic chondrocytes; 7, 14, 28 days.
The test system of assay [7] is SOX9 expression in human osteoarthritic chondrocytes. Put plainly: SOX9 relative expression in high and low passage osteoarthritic chondrocytes, 7, 14 or 28 days. The assay is classed as cell-based. From the text: Media was exchanged bi-weekly. […] SOX9 is a transcription factor vital to the development and maintenance of cartilage and is required for chondrogenesis. SOX9 promotes chondrocyte survival and transcriptionally activates cartilage-specific genes. SOX9 is repressed in hypertrophic chondrocytes (i.e. terminally differentiated osteoblast-like cells).

Assay [8] deals with Col2a1 expression in dedifferentiated osteoarthritic chondrocytes. Put plainly: Col2a1 relative expression in high passage osteoarthritic chondrocyte monolayer model with TGF-β. The assay is classed as cell-based, human. The following applies: 14 days in culture with TGF-β; 28 mM Lac, 100 mm LA. The procedure: (§1) These compounds were tested in a high passage osteoarthritic chondrocyte monolayer model, alone or in combination with other agents, for both transcriptional regulation of standard markers and IL-1β-induced PGE2 production.

Assay [9] relates to SOX9 expression in dedifferentiated osteoarthritic chondrocytes. Put plainly: SOX9 relative expression in high passage osteoarthritic chondrocyte monolayer model with TGF-β. The assay is classed as cell-based, human. The following applies: 14 days in culture with TGF-β; 28 mM Lac, 100 mm LA. The procedure: as §1
Assay [10] concerns PGE2 release from dedifferentiated osteoarthritic chondrocytes. As to the kind of experiment: IL-1β-induced PGE2 release in high passage osteoarthritic chondrocyte monolayer model, 24 h. The assay is classed as cell-based. The following applies: Homo sapiens. The procedure:
as §1

In assay [11] the test system is PGE2 in primary human osteoarthritic synoviocytes. Put plainly: Early, pretreatment and intracellular vs secreted PGE2 in IL-1β-stimulated human osteoarthritic synoviocytes. The following applies: 200 nanomolar DA or 500 nanograms/milliliter IL-1RA; IL-1β 1 nanogram/milliliter. The assay is classed as cell-based. The procedure:
The concentrations in FIG. 31A were measured at hour three.
Cells were also treated with IL-IRA which inhibits IL-1β by binding the cell-surface […] and inhibiting its dimerization with the IL-1 receptor (IL-1R), effectively blocking IL-1β signaling.
FIG. 33 illustrates two bar graphs that depict the concentrations of PGE2 inside of the cell versus PGE2 that was secreted into the cell culture media. Specifically, the bar graph labeled “Intracellular” illustrates the concentrations of PGE2 inside of the cell and the bar graph labeled “Supernatent” illustrates the concentration of PGE2 that was secreted into the cell culture media. Synoviocytes were stimulated with IL-1β for 6 hours and then cell culture media harvested separately along with collecting cell lysates. […] To test this, the PGE2 concentrations inside of the cells and in the cell culture media were measured to compare them directly to each other.

Where [12] appears, read: 24 h, rescue (added after overnight IL-1β activation), 24-hour harvest, 28 mM Lac, 10 μM LA.
Where [13] appears, read: 14-day micromass pellet culture.
Setting [14] is: high passage, dedifferentiated osteoarthritic chondrocytes with TGF-β3, 14 days.

What is called inhibition is how much of the control response was suppressed. What is called IC50 is the concentration that gives 50% inhibition. For `CCCCCCCCCC(=O)[O-].[Na+]` [Dec, sodium decanoate], the inhibition at 25 µM in assay [1] (24 h, added at the same time as IL-1β, 24-hour harvest) worked out at 53%; in assay [1] (setting [12]) it was 72%; in [1] (96 h, added at the same time as IL-1β, 96-hour harvest), 76%; in assay [1] (96 h, rescue, 96-hour harvest, 28 mM Lac, 10 μM LA) it was 57%; in [1] (pre-incubation 24 hours before IL-1β, 24-hour harvest, 28 mM Lac, 10 μM LA), 41%; in assay [1] (pre-incubation, 96-hour harvest) it was 75%. Besides, the inhibition at 25 µM in [2] (prepared in LR) worked out at 65.2%; in assay [2] (prepared in medium) it was 62.3%; in assay [2] (prepared in saline) it was 63.2%. The “relative potency of decanoate as compared to DA” value in [2] (95 percent confidence interval of 0.80-1.06) was found to be 0.92. In addition, the “increase in potency of sodium decanoate by 25 nanomolar Dex” value in assay [3] is recorded as 4.6 ×. Moreover, the half-maximal inhibitory concentration (IC50) in assay [3] (THP-1, repeated experiments comparing DA to sodium decanoate) came out at 146 µM; in [3] (THP-1, sodium decanoate with addition of 25 nanomolar Dex), 31.5 µM.
As for `C[C@@H]1C[C@H]2[C@@H]3CCC4=CC(=O)C=C[C@]4(C)[C@@]3(F)[C@@H](O)C[C@]2(C)[C@@]1(O)C(=O)CO` [Dex, dexamethasone, reference compound], the “Observed Relative expression of MMP13” value in [4] (setting [13]) is reported as −38.6 fold; in assay [4] (28-day monolayer culture) it was −3.6 fold. This compound also came in with an inhibition at 0.01 µM in assay [5] (Homo sapiens, Chondrocyte, Dex 10 nanomolar final, IL-1β 500 pg/mL, 48 h) of 100%. In addition, in [5] (IL-1β 48 h), the “concentration at which statistical significance of PGE2 suppression was observed” value is 100 picomolar. Moreover, the “increased Dex potency by 100 micromolar DA” value in [3] turned out to be 1.969 ×. For the same compound, the 50% inhibitory concentration (IC50) in [3] (THP-1, Dex phosphate alone, 1 picomolar to 10 micromolar) was found to be 0.046 µM; in assay [3] (THP-1, Dex with addition of 100 micromolar DA) it was 0.0234 µM.
`C[C@@H]1C[C@H]2[C@@H]3CCC4=CC(=O)C=C[C@]4(C)[C@@]3(F)[C@@H](O)C[C@]2(C)[C@@]1(O)C(=O)COP(=O)(O)O` [Dxp, dexamethasone phosphate, reference compound]: the MMP13 transcription entry in assay [6] is “reduce MMP13 transcription”. In addition, the SOX9 expression entry is “decreased expression of SOX9” in assay [7] (setting [14]) and “temporal decrease in expression of SOX9” in assay [7] (low passage osteoarthritic chondrocytes, 7, 14, 28 days).
Take `O=C(O)CCCCC1CCSS1` (stereo not drawn) [LA, α-lipoic acid]: in [8], the “increase in Col2a1 compared to controls” value came out at 218 fold. The figures for the inhibition at 10 µM in [1] (setting [12]) and in assay [10] (LA 10 μM final) were 85% and 44%, respectively. In addition, in assay [9], the “increase in SOX9 transcription” value is listed as 4 fold. Moreover, in assay [7] (setting [14]), the SOX9 expression entry is reported as “increased SOX9 transcription”. Besides, the inhibition at 1 µM in [10] (LA 1 μM final) was 33%. In addition, the inhibition at 100 µM in assay [10] (LA 100 μM final) worked out at 93%.
“IL-1RA: IL-1 Receptor Antagonist, blocks IL-1β signaling”: the “PGE2 release after pretreatment (5 minutes, 1 hour, or 2 hours) then IL-1β 10 minutes or 1 hour” value in assay [11] is given as “consistently higher than PGE2 levels in DA treated cells”.
Regarding hyaluronic acid [HA], the results for the “Observed Relative expression of MMP13” value in [4] (setting [13]) and in assay [4] (28-day monolayer culture) were −1.6 fold and 1.0 fold, respectively.
